In ChEMBL document CHEMBL1201862, “PubChem BioAssay data set” (2004):
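All cell lines were grown in 96-well plates and treated with compound for 48 hours. GI50 = concentration required for 50% inhibition of growth.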 Active and inactive are the calls of the source. Cut-off read from the data, not from the text of the source: active = GI50 up to about 1.1 µM and inactive = higher.

Assays:
Assay in all cases: NCI tumour cell line growth inhibition, 48 h
[1] = system: TK-10
[2] = system: OVCAR-8
[3] = system: SW-620
[4] = system: COLO 205
[5] = system: Malme-3M
[6] = system: IGROV-1
[7] = system: SF-295
[8] = system: DU-145
[9] = system: SNB-19
[10] = system: UACC-257
[11] = system: HOP-62
[12] = system: RPMI-8226
[13] = system: MDA-MB-435
[14] = system: MDA-MB-231
[15] = system: BT-549
[16] = system: KM12
[17] = system: SF-268
[18] = system: NCI-H23
[19] = system: NCI-H460
[20] = system: RXF 393

Row | SMILES | GI50 [1] | GI50 [2] | GI50 [3] | GI50 [4] | GI50 [5] | GI50 [6] | GI50 [7] | GI50 [8] | GI50 [9] | GI50 [10] | GI50 [11] | GI50 [12] | GI50 [13] | GI50 [14] | GI50 [15] | GI50 [16] | GI50 [17] | GI50 [18] | GI50 [19] | GI50 [20]
1 | CC1=NN(C(=O)CC(=O)Nc2ccccc2)C(=O)C1/N=N/c1ccc(C(=O)O)cc1 (centres undefined) | > 100 µM (inactive) | > 100 µM (inactive) | > 100 µM (inactive) | > 100 µM (inactive) | > 100 µM (inactive) | > 100 µM (inactive) | > 100 µM (inactive) | > 100 µM (inactive) | 80.5 µM (inactive) | > 100 µM (inactive) | 75.9 µM (inactive) | > 100 µM (inactive) | > 100 µM (inactive) | > 100 µM (inactive) | > 100 µM (inactive) | > 100 µM (inactive) | 77.8 µM (inactive) | > 100 µM (inactive) | > 100 µM (inactive) | > 100 µM (inactive)
2 | COC(=O)C1=C(C)C=C(N2CCOCC2)C(C(=O)OC)C1c1ccccc1 (centres undefined) | > 10 µM (inactive) | > 10 µM (inactive) | > 10 µM (inactive) | > 10 µM (inactive) | > 10 µM (inactive) | > 10 µM (inactive) | > 10 µM (inactive) | > 10 µM (inactive) | > 10 µM (inactive) | > 10 µM (inactive) | > 10 µM (inactive) | > 10 µM (inactive) | > 10 µM (inactive) | > 10 µM (inactive) | > 10 µM (inactive) | > 10 µM (inactive) | > 10 µM (inactive) | > 10 µM (inactive) | > 10 µM (inactive) | > 10 µM (inactive)
3 | CCOC(=O)C(NC(=O)CC)(Nc1ccc(S(=O)(=O)Nc2nc(C)cc(C)n2)cc1)C(F)(F)F (centres undefined) | > 100 µM (inactive) | > 100 µM (inactive) | > 100 µM (inactive) | > 100 µM (inactive) | > 100 µM (inactive) | > 100 µM (inactive) | > 100 µM (inactive) | > 100 µM (inactive) | > 100 µM (inactive) | > 100 µM (inactive) | > 100 µM (inactive) | > 100 µM (inactive) | > 100 µM (inactive) | > 100 µM (inactive) | > 100 µM (inactive) | > 100 µM (inactive) | > 100 µM (inactive) | > 100 µM (inactive) | > 100 µM (inactive) | > 100 µM (inactive)
4 | COc1ccc(/N=N/C(=NNC(=O)c2ccc(C)cc2)c2ccc(N(C)C)cc2)cc1 | > 100 µM (inactive) | 40.3 µM (inactive) | 56.8 µM (inactive) | 6.84 µM (inactive) | 34.6 µM (inactive) | 59.6 µM (inactive) | 28.4 µM (inactive) | 25.1 µM (inactive) | 61.2 µM (inactive) | 33.3 µM (inactive) | 49.1 µM (inactive) | 17.5 µM (inactive) | 20.1 µM (inactive) | 64.4 µM (inactive) | 27.7 µM (inactive) | 30.1 µM (inactive) | > 85.7 µM (inactive) | 26.4 µM (inactive) | 39.7 µM (inactive) | 32 µM (inactive)
5 | CC1(C)C(=O)C2(OS(=O)(=O)C(F)(F)F)CCC1C2 (centres undefined) | > 100 µM (inactive) | > 100 µM (inactive) | > 100 µM (inactive) | > 100 µM (inactive) | > 100 µM (inactive) | > 100 µM (inactive) | > 100 µM (inactive) | > 100 µM (inactive) | > 100 µM (inactive) | > 100 µM (inactive) | > 100 µM (inactive) | > 100 µM (inactive) | > 100 µM (inactive) | > 100 µM (inactive) | > 100 µM (inactive) | > 100 µM (inactive) | > 100 µM (inactive) | > 100 µM (inactive) | > 100 µM (inactive) | > 100 µM (inactive)
6 | CC(C(O)Cc1ccccc1)N(C)/N=N/c1ccc([N+](=O)[O-])cc1 (centres undefined) | 22.5 µM (inactive) | 17.6 µM (inactive) | 23.9 µM (inactive) | 21.2 µM (inactive) | 22.2 µM (inactive) | 19.4 µM (inactive) | 19.8 µM (inactive) | 27 µM (inactive) | 39.4 µM (inactive) | 21.4 µM (inactive) | 16.7 µM (inactive) | 16.9 µM (inactive) | 18.9 µM (inactive) | 14.6 µM (inactive) | 19.6 µM (inactive) | 21.7 µM (inactive) | 21 µM (inactive) | 20.1 µM (inactive) | 15.2 µM (inactive) | 1.19 µM (inactive)
7 | CCCC(Sc1nc(N)nc2nc[nH]c12)C(=O)O (centres undefined) | 26.6 µM (inactive) | 56.2 µM (inactive) | > 100 µM (inactive) | > 100 µM (inactive) | > 100 µM (inactive) | > 100 µM (inactive) | 59.7 µM (inactive) | 57.9 µM (inactive) | > 100 µM (inactive) | > 100 µM (inactive) | > 100 µM (inactive) | 35.2 µM (inactive) | 74.8 µM (inactive) | > 100 µM (inactive) | > 100 µM (inactive) | > 100 µM (inactive) | 46.8 µM (inactive) | > 100 µM (inactive) | 67 µM (inactive) | 81.5 µM (inactive)
8 | CC(O)C1(O)C(O)CC(OC2c3cc4c(c(O)c3[C@@H]3C[C@@]2(C)OC32C=c3cc[nH]c3=N2)C(=O)c2cccc(O)c2C4=O)OC1C (some centres undefined) | 1.71 µM (inactive) | 0.959 µM (active) | 0.809 µM (active) | 0.697 µM (active) | 0.938 µM (active) | 0.592 µM (active) | 1.87 µM (inactive) | 1.15 µM (inactive) | 2.34 µM (inactive) | 1.48 µM (inactive) | 1.06 µM (active) | 0.948 µM (active) | 1.63 µM (inactive) | 1.06 µM (active) | 5.56 µM (inactive) | 1.07 µM (active) | 1.79 µM (inactive) | 1.53 µM (inactive) | 0.401 µM (active) | 1.05 µM (active)
9 | N/N=C(\c1nc2ccc([N+](=O)[O-])cc2nc1O)C(O)c1ccc(Cl)c(Cl)c1 (centres undefined) | > 100 µM (inactive) | > 100 µM (inactive) | 56.9 µM (inactive) | > 100 µM (inactive) | > 100 µM (inactive) | > 100 µM (inactive) | > 100 µM (inactive) | > 100 µM (inactive) | > 100 µM (inactive) | > 100 µM (inactive) | > 100 µM (inactive) | 22.8 µM (inactive) | 71.6 µM (inactive) | > 100 µM (inactive) | > 100 µM (inactive) | 28.3 µM (inactive) | > 100 µM (inactive) | > 100 µM (inactive) | 82.4 µM (inactive) | > 100 µM (inactive)
10 | COc1cc2c(cc1OCCCC(=O)Nc1cc(C(=O)NCCCN(C)C)n(C)n1)N=CC1CCCN1C2=O (centres undefined) | 7.4 µM (inactive) |  | 8.63 µM (inactive) | 8.93 µM (inactive) | 6.97 µM (inactive) | 6.7 µM (inactive) | > 100 µM (inactive) | 12.9 µM (inactive) | 10 µM (inactive) | 7.45 µM (inactive) | > 20.8 µM (inactive) | 5.66 µM (inactive) | 40.9 µM (inactive) | 19.7 µM (inactive) | 9.75 µM (inactive) | > 100 µM (inactive) | 16.2 µM (inactive) | 11.5 µM (inactive) | 9.89 µM (inactive) | 9.18 µM (inactive)
